Results: patent publication US20220313780A1, “METHODS AND COMPOSITIONS FOR TREATING INFLAMMATORY CONDITIONS” (THE SCRIPPS RESEARCH INSTITUTE, priority 2019, published 2022)

Key:
[1] = system: caspase 1; assay: Caspase 1 activity assay in PMA-differentiated THP1 cells treated with LPS and ATP; assay type: cell-based, human; conditions: peptide at 2 nM-20 nM (tested 0-500 nM)
Protocol: THP1-null (THP1) cells were plated at a final concentration of 1×10^6/mL in 96 well plates and incubated with PMA (0.5 μM) for 3 hours 37° C. in supplemented RPMI. Media was subsequently changed every 24 hours for 3 days. Various subsets of wells were selected and cells were treated for 60 minutes at 37° C. in serum-free RPMI with: (A) APC (4 μg/mL), TR47 (50 μM-2 nM), scrTR47 (50 μM), SFLLRN (50 μM), TFLLRN (50 μM); (B) P3R (50 μM-500 nM), P3K (50 μM); (C) APC (4 or 1 μg/mL), TR47 (8 nM), P3R (500 nM) or TR47+P3R (8 nM and 500 nM, respectively); (D) TR47 (0-128 nM) (●)±P3R (500 nM) (□); (E) P3R (0-500 nM) (●)±TR47 (1 nM) (□). Following DPBS wash, cells were incubated with LPS (1 μg/mL) for 3 hours at 37° C. in serum-free RPMI. After a DPBS wash, cells were incubated with ATP (5 mM) in the presence or absence of 10 μM YVAD (caspase 1 inhibitor) or 2.5 μM ZVAD (pan-caspase inhibitor) for 45 minutes at 37° C., prior to performing the caspase 1 activity assay following manufacturer's directions measuring luminescence (relative luminescent units, RLU). (D & E) Experimental caspase 1 activity was normalized to YVAD (caspase 1 inhibitor) luminescence units. (A-E) Data points represent mean±S.D. of at least 3 independent experiments. *P<0.05 (vs. LPS+ATP); #P<0.05 (vs. LPS+ATP & APC, TR47 or P3R); **P<0.005 (vs. LPS+ATP & TR47+500 nM P3R); n.s. not significant.
THP1 cells were plated at a final concentration of 1×10^6/mL in 96 well plates and incubated with PMA (0.5 μM) for 3 hours 37° C. in supplemented RPMI. Media was subsequently changed every 24 hours for 3 days. Selected wells were treated with APC (4 μg/mL), (A) 50 μM or (B) 2 μM of P3R, P3Rm, P3R 51-65, P3R 51-59, P3R 54-59 or P3R 59-65 for 1 hour, washed with DPBS, and incubated with LPS (1 μg/mL) for 3 hours at 37° C. in serum-free RPMI. Cells were washed with DPBS and incubated with ATP (5 mM) in the presence or absence of 10 μM YVAD (caspase 1 inhibitor; C1i) or 2.5 μM ZVAD (pan-caspase inhibitor; pCi) for 45 minutes at 37° C., prior to performing the caspase 1 activity assay following manufacturer's directions measuring luminescence (relative luminescent units, RLU). (C) Diagram showing the PAR3 sequence, peptide sequences and relative (anti-inflammatory) activity. These include sequences of P3R (SEQ ID NO:4), P3Rm (SEQ ID NO:8), P3R 51-65 (SEQ ID NO:9), P3R 51-59 (SEQ ID NO:10), P3R 54-59 (SEQ ID NO:54) and P3R 59-65 (SEQ ID NO:55).
THP1 cells were plated at a final concentration of 1×10^6/mL in 96 well plates and incubated with PMA (0.5 μM) for 3 hours 37° C. in supplemented RPMI. Media was subsequently changed every 24 hours for 3 days. Selected wells were treated with APC (4 μg/mL), TR47, in (A) 9-mer (TR47 9-mer; NPNDKYEPF (SEQ ID NO:36)) or Ac-TR47 (Acylated TR47) at either 50 μM or 10 nM or (B) 50 μM of 16-mer-TR47, 8-mer-TR47, 6-mer-TR47, TR47 N−1, TR47 N−2, TR47 N−5, TR47AQ, TR47AD, TR47AA or TR48-54 for 1 hour, washed with DPBS, and incubated with LPS (1 μg/mL) for 3 hours at 37° C. in serum-free RPMI. Cells were washed with DPBS and incubated with ATP (5 mM) in the presence or absence of 10 μM YVAD (caspase 1 inhibitor; C1i) or 2.5 μM ZVAD (pan-caspase inhibitor; pCi) for 45 minutes at 37° C., prior to performing the caspase 1 activity assay following manufacturer's directions measuring luminescence (relative luminescent units, RLU). #P<0.001 (vs. LPS+ATP), **P<0.005 (vs. LPS+ATP), * (P<0.05 vs. LPS+ATP). (C) Diagram showing the PAR1 sequence, peptide sequences and relative (anti-inflammatory) activity. These include sequences of TR47 (SEQ ID NO:7), Ac-TR47 (SEQ ID NO:56), 16-mer-TR47 (SEQ ID NO:43), 9-mer-TR47 (SEQ ID NO:36), 8-mer-TR47 (SEQ ID NO:35), 6-mer-TR47 (SEQ ID NO:33), TR47 N−1 (SEQ ID NO:47), TR47 N−2 (SEQ ID NO:51), TR47 N−5 (SEQ ID NO:48), TR47AQ (SEQ ID NO:49), TR47AD (SEQ ID NO:52), TR47AA (SEQ ID NO:50) and TR48-54 (SEQ ID NO:53). […]

[2] = system: endothelial cells (EA.hy926); assay: Transendothelial Electric Resistance (TER) assay of thrombin-induced endothelial barrier disruption; assay type: cell-based
Excerpt: The bottom curve in each panel of the figure is labeled as IIa for thrombin alone and represents the observed effects for thrombin (IIa) in the absence of peptide. In each panel, IIa was always present for each peptide added. The number in each panel indicates the concentration of each peptide for the respective curves. The peptide concentration of 0 is represented by the bottom curve labeled “IIa”. (A) the dose response inhibition over time of TER, expressed by Normalized Cell Index (NCI) by the PAR1 derived peptide P1(47-66) or TR47 using concentrations between 5 and 50 nM. (B) the dose response inhibition over time of NCI by the PAR3-derived peptide P3(42-65) or P3R using a 5 to 50 nM concentration range. (C) The NCI dose response inhibition over time by the short sequence PAR1-derived peptide P1(47-55) using a range of concentrations between 50 nM and 100 μM peptide. (D) The NCI dose response inhibition over time by the short sequence PAR3-derived peptide P3(42-54) using a range of concentrations between 1 μM and 200 μM peptide. (E) The NCI dose response inhibition over time by the hybrid peptide G10 in which the P1(47-55) peptide described in panel C was linked to a PAR3 peptide P3(51-65) by using 10 Gly residues. In this case the range of concentrations to study the dose response inhibition was between 3 and 50 nM peptide. An estimate for the percentage of activity for each peptide dilution in presence of thrombin can be quantified by obtaining the Area under the Curve (AUC) for each peptide dilution in comparison to the value for the AUC for thrombin alone in the absence of any peptide. These values were used to calculate the potency of each PAR peptide.
Transendothelial Electric Resistance (TER)-based assays were used to monitor the disruption of endothelial barrier integrity caused by thrombin. The anti-inflammatory, vasculoprotective actions of different PAR peptides for protecting against thrombin-induced vascular leakage on cultured endothelial cells (EA.hy926) were followed in real time using an iCELLigence machine (ACEA Biosciences Inc, San Diego, Calif.). EA.hy926 cells at a density of 10,000/well were pipetted into the wells of gold-plated microelectrode sensor (L8, Acea Biosciences). Subsequently, the increase of electrical resistance was monitored as cells grew and spread out on the microelectrodes to obtain confluence (reaching a plateau) over the TER plates connected to the recording instrument that detected in real time the changes in TER for each well. The effects of different PAR-derived peptides at the indicated concentrations were tested for dose-response inhibition of thrombin's effects when each of the peptide dilutions was added 30 min prior to the addition of thrombin (0.25 nM final in all wells). The percentage of inhibition was proportional to the increase in TER signal over time. Cell index values, reflecting TER signals, were normalized prior to addition of thrombin following manufacturer's directions.

- EC50 ([2]; stabilization of endothelial cell barrier integrity, thrombin 0.25 nM, peptide added 30 min prior, read-out: half-maximum observed activity): ~6 nM
Sequence: NPNDKYEPFGGGGGGGGGGFPFSALEGWTGATIT [G10, PAR1/PAR3 fusion peptide, P1(47-55) linked to P3(51-65) by 10 Glycine residues]
- caspase-1 activity [1]: a significant reduction in caspase-1 activity
- effect on thrombin-induced disruption of endothelial barrier ([2]; peptide at 3 to 50 nM): very significant effects
- effectiveness relative to PAR3 peptide P3(42-54) alone ([2]; protection of endothelial barrier integrity): > 100 fold
- potency relative to the long PAR1 peptide TR47 ([2]; protection of endothelial barrier integrity, 6 nM G10 compared to 50 nM PAR1 peptide): ~8 fold
